In patent US10377717B2, “Farnesoid X receptor agonists and uses thereof” (Metacrine, Inc., priority 2015, dated 2019):

Target: hFXR (Homo sapiens (Human), UniProt Q96RI1)
Test: In Vitro FXR Assay (TK), luciferase reporter in transfected CV-1 cells
Format: cell-based
Settings: TK-ECRE-luc reporter, hFXR/hRXR, 18 hrs, maximum efficacy <25% of Fexaramine control classified as '+'
Description: CV-1 cells were seeded at a density of 2,000,000 cells in a T175 flask with DMEM+10% charcoal double-stripped FBS and incubated at 37° C. in 5% CO2 for 18 h (O/N).
After 18 h of incubation, the medium in the T175 flask was changed with fresh DMEM+10% charcoal super-stripped serum. In a polypropylene tube, 2500 μL OptiMEM (Life Technologies, Cat #31985-062) was combined with expression plasmids for hFXR, hRXR, TK-ECRE-luc and pCMX-YFP. The tube was then briefly vortexed and incubated at room temperature for 5 minutes. Transfection reagent (X-tremeGENE HP from Roche, Cat #06 366 236 001) was added to the OptiMEM/plasmid mixture vortexed and incubated at room temperature for 20 minutes. Following incubation, the transfection reagent/DNA mixture complex was added to cells in the T175 flask and the cells were incubated at 37° C. in 5% CO2 for 18 h (O/N).
Compounds were serially diluted in DMSO and added to transfected CV-1 cells. The cells were then incubated for 18 hrs. The next day cells were lysed and examined for luminescence.

hFXR, sequence (Q96RI1 whole entry): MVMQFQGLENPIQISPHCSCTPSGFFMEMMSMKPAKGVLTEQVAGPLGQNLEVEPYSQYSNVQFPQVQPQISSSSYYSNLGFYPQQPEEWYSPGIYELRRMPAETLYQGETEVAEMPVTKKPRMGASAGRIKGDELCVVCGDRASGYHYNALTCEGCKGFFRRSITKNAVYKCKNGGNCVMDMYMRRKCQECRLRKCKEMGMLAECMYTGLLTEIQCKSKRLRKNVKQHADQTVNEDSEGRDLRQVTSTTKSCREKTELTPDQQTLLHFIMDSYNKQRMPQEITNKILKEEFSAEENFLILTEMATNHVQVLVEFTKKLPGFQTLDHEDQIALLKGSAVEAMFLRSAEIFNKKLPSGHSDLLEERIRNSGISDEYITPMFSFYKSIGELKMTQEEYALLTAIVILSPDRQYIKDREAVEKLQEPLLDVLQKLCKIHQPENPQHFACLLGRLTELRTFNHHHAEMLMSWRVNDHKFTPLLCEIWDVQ
hFXR, sequence (P19793 whole entry partner): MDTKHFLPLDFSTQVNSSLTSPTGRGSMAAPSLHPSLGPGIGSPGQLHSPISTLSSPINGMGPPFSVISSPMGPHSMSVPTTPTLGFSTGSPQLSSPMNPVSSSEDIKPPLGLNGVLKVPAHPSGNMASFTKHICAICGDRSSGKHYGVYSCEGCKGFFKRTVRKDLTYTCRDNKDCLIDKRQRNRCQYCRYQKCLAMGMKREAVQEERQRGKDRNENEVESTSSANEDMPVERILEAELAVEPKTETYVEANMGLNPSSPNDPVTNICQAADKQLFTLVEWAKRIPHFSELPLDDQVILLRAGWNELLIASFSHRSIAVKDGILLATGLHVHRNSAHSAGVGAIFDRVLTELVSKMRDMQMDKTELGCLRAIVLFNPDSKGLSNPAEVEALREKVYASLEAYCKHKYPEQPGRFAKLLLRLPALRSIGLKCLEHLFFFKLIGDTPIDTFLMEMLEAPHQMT

| SMILES | EC50 [nM] |
| --- | --- |
| COC(=O)c1ccc2c(N(Cc3ccc(-c4ccc(C)nc4)cc3)C(=O)CC(C)(C)C)nccc2c1 [Compound 39, Methyl 1-(3,3-dimethyl-N-(4-(6-methylpyridin-3-yl)benzyl)butanamido)isoquinoline-6-carboxylate] | 1000 to 10000 |
| COC(=O)c1ccc2c(N(Cc3ccc(-c4ccc(C5CC5)cc4)cc3)C(=O)CC(C)(C)C)nccc2c1 [Compound 40, Methyl 1-(N-((4′-cyclopropyl-[1,1′-biphenyl]-4-yl)methyl)-3,3-dimethylbutanamido)isoquinoline-6-carboxylate] | ≤ 1000 |
| COC(=O)c1ccc2c(N(Cc3ccc(-c4ccc(OC(F)(F)F)c(Cl)c4)cc3)C(=O)CC(C)(C)C)nccc2c1 [Compound 41, Methyl 1-(N-((3′-chloro-4′-(trifluoromethoxy)-[1,1′-biphenyl]-4-yl)methyl)-3,3-dimethylbutanamido)isoquinoline-6-carboxylate] | ≤ 1000 |
| COC(=O)c1ccc2c(N(Cc3ccc(-c4ccc(C#N)c(C)c4)cc3)C(=O)CC(C)(C)C)nccc2c1 [Compound 42, Methyl 1-(N-((4′-cyano-3′-methyl-[1,1′-biphenyl]-4-yl)methyl)-3,3-dimethylbutanamido)isoquinoline-6-carboxylate] | ≤ 1000 |
| COC(=O)c1ccc2c(N(Cc3ccc(-c4ccc(CO)cc4)cc3)C(=O)CC(C)(C)C)nccc2c1 [Compound 43, Methyl 1-(N-((4′-(hydroxymethyl)-[1,1′-biphenyl]-4-yl)methyl)-3,3-dimethylbutanamido)isoquinoline-6-carboxylate] | 1000 to 10000 |
| COC(=O)c1ccc2c(N(Cc3ccc(-c4ccc5c(ccn5C)c4)cc3)C(=O)CC(C)(C)C)nccc2c1 [Compound 44, Methyl 1-(3,3-dimethyl-N-(4-(1-methyl-1H-indol-5-yl)benzyl)butanamido)isoquinoline-6-carboxylate] | ≤ 1000 |
| COC(=O)c1ccc2c(N(Cc3ccc(-c4ccc(OC)cc4)cc3)C(=O)CC(C)(C)C)nccc2c1 [Compound 45, Methyl 1-(N′-((4′-methoxy-[1,1′-biphenyl]-4-yl)methyl)-3,3-dimethylbutanamido)isoquinoline-6-carboxylate] | ≤ 1000 |
| COC(=O)c1ccc2c(N(Cc3ccc(-c4ccc5c(c4)CCO5)cc3)C(=O)CC(C)(C)C)nccc2c1 [Compound 46, Methyl 1-(N′-(4-(2,3-dihydrobenzofuran-5-yl)benzyl)-3,3-dimethylbutanamido)isoquinoline-6-carboxylate] | ≤ 1000 |
| COC(=O)c1ccc2c(N(Cc3ccc(-c4ccc5c(c4)OCC5)cc3)C(=O)CC(C)(C)C)nccc2c1 [Compound 47, Methyl 1-(N-(4-(2,3-dihydrobenzofuran-6-yl)benzyl)-3,3-dimethylbutanamido)isoquinoline-6-carboxylate] | ≤ 1000 |
| COC(=O)c1ccc2c(N(Cc3ccc(-c4ccc5c(c4)OCCO5)cc3)C(=O)CC(C)(C)C)nccc2c1 [Compound 48, Methyl 1-(N-(4-(2,3-dihvdrobenzo[b][1,4]dioxin-6-yl)benzyl)-3,3-dimethylbutanamido)isoquinoline-6-carboxylate] | ≤ 1000 |
| COC(=O)c1ccc2c(N(Cc3ccc(-c4cnc5c(ccn5C)c4)cc3)C(=O)CC(C)(C)C)nccc2c1 [Compound 49, Methyl 1-(3,3-dimethyl-N-(4-(1-methyl-1H-pyrrolo[2,3-b]pyridin-5-yl)benzyl)butanamido)isoquinoline-6-carboxylate] | ≤ 1000 |
| COC(=O)c1ccc2c(N(Cc3ccc(-c4ccc5sc(C)nc5c4)cc3)C(=O)CC(C)(C)C)nccc2c1 [Compound 50, Methyl 1-(3,3-dimethyl-N-(4-(2-methylbenzo[d]thiazol-5-yl)benzyl)butanamido)isoquinoline-6-carboxylate] | 1000 to 10000 |
| COC(=O)c1ccc2c(N(Cc3ccc(-c4ccc5c(c4)CCN5C(=O)OC(C)(C)C)cc3)C(=O)CC(C)(C)C)nccc2c1 [Compound 51, Methyl 1-(N-(4-(1-(tert-butoxycarbonyl)indolin-5-yl)benzyl)-3,3-dimethylbutanamido)isoquinoline-6-carboxylate] | ≥ 10000 |
| CCOc1ccc(-c2ccc(CN(C(=O)CC(C)(C)C)c3nccc4cc(C(=O)OC)ccc34)cc2)cc1 [Compound 52, Methyl 1-(N-((4′-ethoxy-[1,1′-biphenyl]-4-yl)methyl)-3,3-dimethylbutanamido)isoquinoline-6-carboxylate] | 1000 to 10000 |
| CCc1ccc(-c2ccc(CN(C(=O)CC(C)(C)C)c3nccc4cc(C(=O)OC)ccc34)cc2)cc1 [Compound 53, Methyl 1-(N-((4′-ethyl-[1,1′-biphenyl]-4-yl)methyl)-3,3-dimethylbutanamido)isoquinoline-6-carboxylate] | ≤ 1000 |
| COC(=O)c1ccc2c(N(Cc3ccc(-c4ccc(F)c(OC)c4)cc3)C(=O)CC(C)(C)C)nccc2c1 [Compound 54, Methyl 1-(N-((4′-fluoro-3′-methoxy-[1,1′-biphenyl]-4-yl)methyl)-3,3-dimethylbutanamido)isoquinoline-6-carboxylate] | 1000 to 10000 |
| COC(=O)c1ccc2c(N(Cc3ccc(-c4ccc(C)c(Cl)c4)cc3)C(=O)CC(C)(C)C)nccc2c1 [Compound 55, Methyl 1-(N-((3′-chloro-4′-methyl-[1,1′-biphenyl]-4-yl)methyl)-3,3-dimethylbutanamido)isoquinoline-6-carboxylate] | ≤ 1000 |
| COC(=O)c1ccc2c(N(Cc3ccc(-c4ccc(C(F)F)cc4)cc3)C(=O)CC(C)(C)C)nccc2c1 [Compound 56, Methyl 1-(N-((4′-(difluoromethyl)-[1,1′-biphenyl]-4-yl)methyl)-3,3-dimethylbutanamido)isoquinoline-6-carboxylate] | ≤ 1000 |
| COC(=O)c1ccc2c(N(Cc3ccc(-c4ccc(OC(F)F)cc4)cc3)C(=O)CC(C)(C)C)nccc2c1 [Compound 57, Methyl 1-(N-((4′-(difluoromethoxy)-[1,1′-biphenyl]-4-yl)methyl)-3,3-dirnethylbutanamido)isoquinoline-6-carboxylate] | 1000 to 10000 |
| COCc1ccc(-c2ccc(CN(C(=O)CC(C)(C)C)c3nccc4cc(C(=O)OC)ccc34)cc2)cc1 [Compound 58, Methyl 1-(N-((4′-(methoxymethyl)-[1,1′-biphenyl]-4-yl)methyl)-3,3-dimethylbutanamido)isoquinoline-6-carboxylate] | ≤ 1000 |
| COCCOc1ccc(-c2ccc(CN(C(=O)CC(C)(C)C)c3nccc4cc(C(=O)OC)ccc34)cc2)cc1 [Compound 59, Methyl 1-(N-((4′-(2-methoxyethoxy)-[1,1-biphenyl]-4-yl)methyl)-3,3-dimethylbutanamido)isoquinoline-6-carboxylate] | 1000 to 10000 |
| COC(=O)c1ccc2c(N(Cc3ccc(-c4ccc(OCCO)cc4)cc3)C(=O)CC(C)(C)C)nccc2c1 [Compound 60, Methyl 1-(N′-((4′-(2-hydroxyethoxy)-[1,1′-biphenyl]-4-yl)methyl)-3,3-dimethylbutanamido)isoquinoline-6-carboxylate] | 1000 to 10000 |
| COC(=O)c1ccc2c(N(Cc3ccc(-c4ccc(CCO)cc4)cc3)C(=O)CC(C)(C)C)nccc2c1 [Compound 61, Methyl 1-(N-((4′-(2-hydroxyethyl)-[1,1′-biphenyl]-4-yl)methyl)-3,3-dimethylbutanamido)isoquinoline-6-carboxylate] | ≤ 1000 |
